# Biological target: Genome polyprotein (Hepatitis C virus genotype 1a (isolate H77), UniProt P27958)
# Assay: Continuous Spectrophotometric Assay
# Conditions: not given
# Procedure: Proteolytic cleavage of the ester linkage between the Nva (L-norvaline) and the chromophore (PAP) was monitored for change in absorbance at 370 nm. Initial velocities were determined using linear regression and kinetic constants were obtained by fitting the data to the Michaelis-Menten equation.
# Genome polyprotein, sequence (P27958 1027-1657 limits assumed): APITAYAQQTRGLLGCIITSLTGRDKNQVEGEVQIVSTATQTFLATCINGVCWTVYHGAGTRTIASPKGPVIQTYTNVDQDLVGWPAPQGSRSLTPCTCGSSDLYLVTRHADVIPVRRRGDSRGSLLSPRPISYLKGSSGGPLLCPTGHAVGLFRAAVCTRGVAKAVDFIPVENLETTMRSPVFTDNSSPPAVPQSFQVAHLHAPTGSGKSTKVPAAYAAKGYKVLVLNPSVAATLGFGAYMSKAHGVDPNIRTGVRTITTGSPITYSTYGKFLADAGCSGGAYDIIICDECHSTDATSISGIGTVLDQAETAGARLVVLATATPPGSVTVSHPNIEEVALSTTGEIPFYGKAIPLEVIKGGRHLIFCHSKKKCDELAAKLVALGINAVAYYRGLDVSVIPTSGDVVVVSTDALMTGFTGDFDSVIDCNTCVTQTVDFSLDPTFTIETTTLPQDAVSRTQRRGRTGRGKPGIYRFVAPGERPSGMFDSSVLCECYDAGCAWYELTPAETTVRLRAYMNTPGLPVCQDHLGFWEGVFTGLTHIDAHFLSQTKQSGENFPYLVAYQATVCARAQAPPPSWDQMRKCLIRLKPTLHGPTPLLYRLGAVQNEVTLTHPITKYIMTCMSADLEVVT
row,Ki,Structure (SMILES)
1,3 nM,"C=CCNC(=O)C(=O)[C@@H]1CCCCCCCCC[C@H](NC(=O)N[C@H](CN2C(=O)C3CCC(C3)C2=O)C(C)(C)C)C(=O)N2C[C@H]3[C@@H]([C@H]2C(=O)N1)C3(C)C [2-[(3S,13S,16S,17R,19S)-3-({[(2S)-1-{2,4-dioxo-3-azabicyclo[3.2.1]octan-3-yl}-3,3-dimethylbutan-2-yl]carbamoyl}amino)-18,18-dimethyl-2,15-dioxo-1,14-diazatricyclo[14.4.0.0^{17,19}]icosan-13-yl]-2-oxo-N-(prop-2-en-1-yl)acetamide]"

# Same assay, conditions: pH 6.5; 30 °C
row,Ki,Structure (SMILES)
1,6 nM,"CN(C)C(=O)[C@@H](NC(=O)CNC(=O)C(=O)[C@@H]1CCCCCCCCCC[C@H](NC(=O)NC(C)(C)C)C(=O)N2C[C@H]3[C@@H]([C@H]2C(=O)N1)C3(C)C)c1ccccc1 [2-[(3S,14S,17S,18R,20S)-3-[(tert-butylcarbamoyl)amino]-19,19-dimethyl-2,16-dioxo-1,15-diazatricyclo[15.4.0.0^{18,20}]henicosan-14-yl]-N-({[(S)-(dimethylcarbamoyl)(phenyl)methyl]carbamoyl}methyl)-2-oxoacetamide]"
2,59 nM,"CC(C)(C)OC(=O)N[C@H]1CCCCCCCCCC[C@@H](C(=O)C(N)=O)NC(=O)[C@@H]2[C@@H]3[C@H](CN2C1=O)C3(C)C [tert-butyl N-[(3S,14S,17S,18R,20S)-14-(carbamoylcarbonyl)-19,19-dimethyl-2,16-dioxo-1,15-diazatricyclo[15.4.0.0^{18,20}]henicosan-3-yl]carbamate]"
3,3 nM,"CN(C[C@@H](NC(=O)N[C@H]1CCCCCCCCC[C@@H](C(=O)C(N)=O)NC(=O)[C@@H]2[C@@H]3[C@H](CN2C1=O)C3(C)C)C(C)(C)C)S(C)(=O)=O [2-[(3S,13S,16S,17R,19S)-3-({[(2S)-1-[methane(methyl)sulfonamido]-3,3-dimethylbutan-2-yl]carbamoyl}amino)-18,18-dimethyl-2,15-dioxo-1,14-diazatricyclo[14.4.0.0^{17,19}]icosan-13-yl]-2-oxoacetamide]"
4,59 nM,"CC(C)(C)NC(=O)N[C@H]1CCCCCCCCCC[C@@H](C(=O)C(N)=O)NC(=O)[C@@H]2[C@@H]3[C@H](CN2C1=O)C3(C)C [2-[(3S,14S,17S,18R,20S)-3-[(tert-butylcarbamoyl)amino]-19,19-dimethyl-2,16-dioxo-1,15-diazatricyclo[15.4.0.0^{18,20}]henicosan-14-yl]-2-oxoacetamide]"
5,37 nM,"CC(C)(C)OC(=O)[C@@H](NC(=O)N[C@H]1CCCCCCCCCC[C@@H](C(=O)C(N)=O)NC(=O)[C@@H]2[C@@H]3[C@H](CN2C1=O)C3(C)C)C(C)(C)C [tert-butyl (2S)-2-({[(3S,14S,17S,18R,20S)-14-(carbamoylcarbonyl)-19,19-dimethyl-2,16-dioxo-1,15-diazatricyclo[15.4.0.0^{18,20}]henicosan-3-yl]carbamoyl}amino)-3,3-dimethylbutanoate]"
6,89 nM,"CC(C)(C)OC(=O)N[C@H]1CCCCCCCCCC[C@@H](C(=O)C(=O)NCC(=O)NCc2ccccc2)NC(=O)[C@@H]2[C@@H]3[C@H](CN2C1=O)C3(C)C [tert-butyl N-[(3S,14S,17S,18R,20S)-14-({[(benzylcarbamoyl)methyl]carbamoyl}carbonyl)-19,19-dimethyl-2,16-dioxo-1,15-diazatricyclo[15.4.0.0^{18,20}]henicosan-3-yl]carbamate]"
7,5 nM,"C=CCNC(=O)C(=O)[C@@H]1CCCCCCCCC[C@H](NC(=O)N[C@H](CN(C)S(=O)(=O)c2cccs2)C(C)(C)C)C(=O)N2C[C@H]3[C@@H]([C@H]2C(=O)N1)C3(C)C [2-[(3S,13S,16S,17R,19S)-3-({[(2S)-3,3-dimethyl-1-[methyl(thiophene-2-)sulfonamido]butan-2-yl]carbamoyl}amino)-18,18-dimethyl-2,15-dioxo-1,14-diazatricyclo[14.4.0.0^{17,19}]icosan-13-yl]-2-oxo-N-(prop-2-en-1-yl)acetamide]"
8,14 nM,"CCCNC(=O)C(=O)[C@@H]1CCCCCCCCC[C@H](NC(=O)N[C@H](CN(C)S(=O)(=O)c2cccs2)C(C)(C)C)C(=O)N2C[C@H]3[C@@H]([C@H]2C(=O)N1)C3(C)C [2-[(3S,13S,16S,17R,19S)-3-({[(2S)-3,3-dimethyl-1-[methyl(thiophene-2-)sulfonamido]butan-2-yl]carbamoyl}amino)-18,18-dimethyl-2,15-dioxo-1,14-diazatricyclo[14.4.0.0^{17,19}]icosan-13-yl]-2-oxo-N-propylacetamide]"
9,36 nM,"CC1(NC(=O)N[C@H]2CCCCCCCCCC[C@@H](C(=O)C(N)=O)NC(=O)[C@@H]3[C@@H]4[C@H](CN3C2=O)C4(C)C)CCCCC1 [2-[(3S,14S,17S,18R,20S)-19,19-dimethyl-3-{[(1-methylcyclohexyl)carbamoyl]amino}-2,16-dioxo-1,15-diazatricyclo[15.4.0.0^{18,20}]henicosan-14-yl]-2-oxoacetamide]"

# Source: BindingDB's records for doi:10.1021/jm800940u (Schering-Plough Research Institute, 2009)
